Holding throughout (assay): NCI-60 cell line screen, 48 h
Assay [1] has as its system K-562 leukemia.
For assay [2], the system named is 786-0 renal.
The subject of assay [3] is NCI-H522 lung.
Assay [4] has as its system SN12C renal.
In assay [5] the test system is NCI-H23 lung.
The subject of assay [6] is HL-60(TB) leukemia.
Assay [7] concerns HOP-92 NSCLC.
Assay [8] concerns M14 melanoma.
Assay [9] deals with SK-MEL-5 melanoma.
In assay [10] the test system is SW-620 colon.

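In this assay, cells in 96-well plates receive the compound at five concentrations for 48 hours. Endpoints are linearly interpolated between the surrounding concentrations. Here, GI50 denotes the concentration required for 50% inhibition of growth. TGI marks complete inhibition of growth.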

With `CCCC(CC)c1c(O)c(O)c(C(CC)CCC)c(C(CC)CCC)c1C(CC)CCC` (stereo not given), the TGI in [1], in assay [2], in [3], in assay [4], in [5] and in assay [6] was more than 10 µM throughout. Also, the TGI in assay [7], in assay [8], in assay [9] and in assay [10] was more than 10 µM throughout.

For `Cc1ccc(S(=O)(=O)NC(=O)NCCC(=O)O)cc1`, the TGI in [1], in assay [2], in assay [3], in assay [4], in assay [5] and in assay [6] was more than 100 µM each time. In addition, the TGI in [7], in assay [8], in assay [9] and in assay [10] was more than 100 µM each time.

In the case of `Cc1cccc2nc3cccc(C(=O)NCCC[N+](C)(CCCNC(=O)c4cccc5nc6cccc(C)c6nc45)Cc4c([N+](=O)[O-])ncn4C)c3nc12`, the TGI in assay [1], in [2], in assay [3], in assay [4], in assay [5] and in assay [7] was more than 1100 µM in each case. For the same compound, the values for the TGI in assay [9] and in assay [10] were 366 µM and more than 1100 µM, respectively. For the same compound, the GI50 in assay [3] is 16.2 µM; in [4], 150 µM; in assay [5], 370 µM; in assay [6], 48.6 µM; in assay [7] it was more than 1.1 mM; in assay [9] it was 12.1 µM. Further, the GI50 in assay [10] was 49.3 µM.

For `CN(C)CCOC(=O)c1ccc(N)cc1`, the TGI was more than 100 µM in [1]; more than 100 µM in assay [2]; 68.1 µM in [3]; more than 100 µM in assay [4]; more than 100 µM in assay [5]; 83.7 µM in assay [6]. Besides, the TGI was 49.5 µM in assay [7], 34.8 µM in [8], more than 100 µM in [9] and more than 100 µM in assay [10].

With `COc1ccccc1NC(=S)N/N=C(/C)c1ccccn1`, the TGI in assay [1] is more than 100 µM; in assay [2], 5.17 µM; in [3], more than 100 µM; in assay [4] it was 6.73 µM; in [5], more than 100 µM; in assay [6], 2.08 µM. For the same compound, the TGI in assay [7] was more than 100 µM; in assay [8], 2.54 µM; in assay [10], more than 100 µM.

Consider `S=C1C(=Nc2ccccc2)N(c2ccccc2)/C(=N\c2ccccn2)N1c1ccccc1`, for which the TGI in assay [1] was more than 100 µM; in assay [2], 27.6 µM; in assay [3], 3.59 µM; in assay [4] it was 24 µM; in [5], 25 µM; in assay [6] it was more than 100 µM. The TGI in assay [7] amounted to 25.7 µM; in [9], 27.2 µM; in [10] it was 27.9 µM.

As to `O=C1C=C2CO[C@H]3OC[C@H](O)[C@@H]1[C@@H]23`, the TGI is more than 100 µM in assay [1]; more than 100 µM in assay [2]; 33.1 µM in assay [3]; 90 µM in [4]; more than 100 µM in assay [5]; 76.1 µM in assay [6]. For the same compound, the TGI in [7], in assay [8], in assay [9] and in assay [10] was more than 100 µM in each case.

With `C=CCN(c1cc(OCc2ccccc2)c(NC(C)=O)cc1[N+](=O)[O-])S(C)(=O)=O`, the TGI was more than 100 µM in assay [1]; 49.2 µM in assay [2]; more than 100 µM in assay [3]; more than 100 µM in [4]; 32.3 µM in [5]; more than 100 µM in assay [6]. For the same compound, the TGI in [7] was 41.2 µM; in assay [8] it was more than 100 µM; in assay [9], more than 100 µM; in [10], more than 100 µM.

In the case of `O=C1OC2(C(F)(F)F)Oc3ccccc3CN2C12CCCCC2` (stereo not given), the TGI in [1] is 52.6 µM; in assay [2] it was more than 100 µM; in assay [3], 83.3 µM; in assay [4] it was more than 100 µM; in assay [5] it was 95.2 µM; in [6] it was 40.5 µM. In addition, the figures for the TGI in [7], in assay [8] and in assay [10] were 61.7 µM, 66 µM and more than 100 µM, respectively.

Regarding `Cc1ccc(NC(=S)Nc2c(C)n(C)n(-c3ccccc3)c2=O)cc1`, the TGI in assay [1], in assay [2], in assay [3], in assay [5], in assay [6] and in [7] was more than 100 µM each time. Also, the TGI in [8], in [9] and in [10] was more than 100 µM each time.

As to `COCN1CCN=c2c1c1c3c(c4ccccc4n23)CCC1`, the TGI in assay [1], in assay [2], in [3], in assay [4], in [5] and in assay [6] was more than 100 µM throughout. The TGI in assay [7], in [8], in [9] and in [10] was more than 100 µM throughout.

For `N#Cc1c(N2CCCC2)ncn(Cc2ccccc2)c1=S`, the TGI in [1], in [2], in [3], in [4], in assay [5] and in assay [6] was more than 100 µM each time. Moreover, the TGI in [7] is 99.3 µM; in assay [8], more than 100 µM; in [9], more than 100 µM; in [10] it was more than 100 µM.

With `CO/C(=N\N=C\c1ccc(Cl)cc1Cl)c1ccncc1`, the TGI in assay [1], in assay [2], in assay [3], in assay [4], in assay [5] and in assay [6] was more than 10 µM each time. In addition, the TGI in [7], in [8] and in assay [10] was more than 10 µM each time.

Values taken from PubChem BioAssay (NCI).
